Assay [1] relates to prostate cancer (PC3). As to the kind of experiment: MTT antiproliferative assay, PC3. Type of assay: cell-based, human. To be noted: 72 h. The source says:
(§1) Ru3–Ru9 also show a certain selectivity for cancer cells over normal cells, and Ru2, Ru3, Ru5 and Ru9 show higher selectivity index (SI) values than the other complexes.
(§2) PA-BPP was then used to confirm the molecular targets of Ru5 by modifying it with a ‘minimalist’ biorthogonal handle-containing photo-cross-linker. Through our structure–activity relationship analysis and comparison with other ruthenium complexes utilizing phen as the auxiliary ligands with similar coordination structures (using cisplatin as a control), we propose that the β-carboline ligands play an important role in antiproliferative activity. To maintain the binding characteristics of the β-carboline moiety with the targeted biomolecules, we linked the photo-cross-linker to one of the auxiliary ligands of Ru5.

In assay [2] the test system is human lung fibroblast-like (HLF) cells. As to the kind of experiment: MTT antiproliferative assay, HLF. It is filed as cell-based. The note with it: 72 h.
Description: as §1, §2

Assay [3] deals with cisplatin-resistant A549R. As to the kind of experiment: MTT antiproliferative assay, A549R. It is filed as cell-based, human. The note with it: 72 h.
Description: as §1, §2
In general terms: Tetrazolium assays rely on reduction of a dye to a coloured formazan, in cell work by metabolically active cells.

Assay [4] has as its system triple negative breast cancer (MDA-MB-231). As to the kind of experiment: MTT antiproliferative assay, MDA-MB-231. It is filed as cell-based, human. The note with it: 72 h.
Description: as §1, §2

Assay [5] deals with A549 cells. As to the kind of experiment: Mitochondrial respiration (OCR) by Seahorse XF analyzer. Type of assay: cell-based, human. The note with it: 5 μM. The source says:
As Ru5 is located in mitochondria and inhibits ATPase related to mitochondrial respiration, we then evaluated its impact on oxygen consumption rate (OCR) using the Seahorse XF analyzer. Ru5 inhibits ATP-linked respiration, basal respiration and maximal respiration capacity, and it also increases the proton leak and alters non-mitochondrial respiration (Fig. 2A and Fig. S43). Accordingly, Ru5 treatment leads to an increase in the opening of the mitochondrial permeability transition pore (MPTP) of A549 in a concentration-dependent manner (Fig. 2B). […] The colocalization of the fluorescence of dihydrorhodamine 123 (DHR-123) with MitoTracker Deep Red (MTDR) indicates ROS are mainly generated in mitochondria (Fig. 2E).
Figure 2. […] (A) Impact of Ru5 (5 μM) on mitochondrial respiration of A549 cells measured by Seahorse. The OCR was measured under basal conditions, and after the sequential addition of oligomycin (1 μM), carbonyl cyanide 4-(trifluoromethoxy)phenylhydrazone (FCCP, 0.8 μM) and a mixture of rotenone (0.5 μM) and antimycin A (0.5 μM, R&A). […] The cells were treated with Ru5 for 6 h and analyzed by flow cytometry. λex = 488 nm, λem = 520 ± 20 nm. (C) Impact of Ru5 (5 μM) on MMP measured by JC-1 staining. […]

The test system of assay [6] is cervical carcinoma (HeLa). As to the kind of experiment: MTT antiproliferative assay, HeLa. It is filed as cell-based, human. To be noted: 72 h.
Description: as §1, §2

Assay [7] concerns lung adenocarcinoma (A549). As to the kind of experiment: MTT antiproliferative assay, A549. It is filed as cell-based, human. To be noted: 72 h.
Description: as §1, §2

One may read the IC50 as the midpoint of a concentration-inhibition curve. High values mean weaker potency, low ones greater potency. Regarding `F[P-](F)(F)(F)(F)F.F[P-](F)(F)(F)(F)F.[Ru+2].c1ccc2c(c1)[nH]c1c(-c3ncc[nH]3)nccc12.c1cnc2c(c1)ccc1cccnc12.c1cnc2c(c1)ccc1cccnc12` [Ru5], the half-maximal inhibitory concentration (IC50) in assay [1] stood at 2700 ± 400 nM; in assay [2], 33.9 ± 0.2 µM; in assay [3] it was 3.3 ± 0.7 µM; in assay [4] it was 7.7 ± 0.2 µM; in assay [6] it was 3.1 ± 0.7 µM; in assay [7] it was 2100 ± 800 nM. In assay [5], the “ATP-linked respiration, basal respiration and maximal respiration capacity (OCR)” value was “inhibits”.

(Values after PMC11304990, “Identification of mitochondrial ATP synthase as the cellular target of Ru-polypyridyl-β-carboline complexes by affinity-based protein profiling” (National Science Review, 2024).)
